# Values quoted from earlier work as cited in patent US8822536B2, “Dietary supplements containing terpenoid acids of maslinic acid or oleanolic acid and process for enhancing muscle mass in mammals” (FHG Corporation d/b/a Integrity Nutraceuticals, priority 2009, dated 2014).
# Assays:
# [1] = target: T1, glycogen phosphorylase (Oryctolagus cuniculus, UniProt P00489)
# T1 sequence (P00489 2-843 limits assumed): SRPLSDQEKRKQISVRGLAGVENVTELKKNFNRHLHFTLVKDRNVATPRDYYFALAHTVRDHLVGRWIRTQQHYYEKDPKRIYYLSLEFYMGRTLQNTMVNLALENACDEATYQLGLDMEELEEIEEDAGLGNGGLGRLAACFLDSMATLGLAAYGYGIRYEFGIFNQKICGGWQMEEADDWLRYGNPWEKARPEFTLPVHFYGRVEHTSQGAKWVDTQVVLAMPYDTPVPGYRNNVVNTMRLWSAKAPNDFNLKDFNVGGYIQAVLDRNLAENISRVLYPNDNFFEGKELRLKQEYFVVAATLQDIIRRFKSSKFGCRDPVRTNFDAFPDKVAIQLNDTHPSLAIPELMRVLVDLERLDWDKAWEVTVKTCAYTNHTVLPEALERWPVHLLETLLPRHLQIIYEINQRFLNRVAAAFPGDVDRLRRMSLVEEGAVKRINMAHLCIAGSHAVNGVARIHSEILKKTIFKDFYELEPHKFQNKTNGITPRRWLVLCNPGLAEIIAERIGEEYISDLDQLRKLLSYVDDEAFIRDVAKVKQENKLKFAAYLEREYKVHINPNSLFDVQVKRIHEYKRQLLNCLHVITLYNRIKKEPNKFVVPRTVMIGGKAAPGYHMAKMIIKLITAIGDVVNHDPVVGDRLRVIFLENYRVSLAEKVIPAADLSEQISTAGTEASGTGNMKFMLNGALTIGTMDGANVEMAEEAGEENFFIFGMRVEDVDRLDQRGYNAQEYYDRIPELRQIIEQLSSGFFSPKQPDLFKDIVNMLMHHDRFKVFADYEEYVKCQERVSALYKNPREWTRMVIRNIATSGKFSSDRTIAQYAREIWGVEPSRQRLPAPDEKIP
# [2] = system: rainbow trout liver
# [3] = system: juvenile dentex fish; settings: 80 mg kg-1
# [4] = system: trout
# [5] = trout fed 250 mg kg-1, with respect to a control
# [6] = trout fed 25 and 250 mg kg-1, white muscle
structure (smiles),measurement,setting,value
"CC1(C)CC[C@]2(C(=O)O)CC[C@]3(C)C(=CC[C@@H]4[C@@]5(C)C[C@@H](O)[C@H](O)C(C)(C)[C@@H]5CC[C@]43C)[C@@H]2C1 [maslinic acid, 2-α,3-β-dihydroxyolean-12-en-28-oic acid]",glycogen phosphorylase inhibition,[1],new type of glycogen phosphorylase inhibitor
same,accumulation of glycogen in liver,[2],high accumulation of glycogen
same,growth of juvenile dentex fish,[3],retard
same,"protein degradation rate, relative (KD) and absolute (AD)","[4]; dietary maslinic acid, trout",stimulated
same,protein synthesis,"[4]; dietary maslinic acid, trout",induces higher protein synthesis
same,feed-efficiency ratio (FER),[4]; [5],increased
same,protein-efficiency ratio (PER),[4]; [5],increased
same,absolute protein-degradation rate (AD),[4]; [6],only a minor increase
same,fractional protein-degradation rate (KD),[4]; [6],no significant changes
same,protein-synthesis rate (KS and AS),[4]; [6],increased
same,protein-accumulation rates (KG and AG),[4]; trout fed with maslinic acid,high protein-accumulation rates
